# Experimental data from patent publication US20170122958A1, “Enzymes Functional Probes” (University of Dundee, priority 2013, published 2017).
# Legend:
# Brd2(1) [1] = molecular target: T1, Brd2(1) (Homo sapiens, UniProt P25440); assay: DSF thermal shift; assay type: binding; settings: wild type
# T1 construct: Plasmids of the eight single BET bromodomain constructs Brd2(1), Brd2(2), Brd3(1), Brd3(2); His6 (N); made in house; host or cells: E. coli BL21(DE3)
# Brd2(1)*(Val103-Ala) = molecular target: T2, Brd2(1)*(Val103-Ala) (Homo sapiens, UniProt P25440, V103A); assay: DSF thermal shift; assay type: binding; settings: mutant
# T2 construct: Plasmids of the eight single BET bromodomain constructs Brd2(1), Brd2(2), Brd3(1), Brd3(2); His6 (N); made in house; host or cells: E. coli BL21(DE3)
# Brd2(2) [2] = molecular target: T3, Brd2(2) (Homo sapiens, UniProt P25440); assay: DSF thermal shift; assay type: binding; settings: wild type
# T3 construct: Plasmids of the eight single BET bromodomain constructs Brd2(1), Brd2(2), Brd3(1), Brd3(2); His6 (N); made in house; host or cells: E. coli BL21(DE3)
# Brd2(2)*(Val376Ala) = molecular target: T4, Brd2(2)*(Val376Ala) (Homo sapiens, UniProt P25440, V376A); assay: DSF thermal shift; assay type: binding; settings: mutant
# T4 construct: Plasmids of the eight single BET bromodomain constructs Brd2(1), Brd2(2), Brd3(1), Brd3(2); His6 (N); made in house; host or cells: E. coli BL21(DE3)
# Brd4(1) = molecular target: T5, Brd4(1) (Homo sapiens, UniProt O60885); assay: DSF thermal shift; assay type: binding; settings: wild type
# T5 construct: Plasmids of the eight single BET bromodomain constructs Brd2(1), Brd2(2), Brd3(1), Brd3(2), Brd4(1), Brd4(2), Brdt(1) and Brdt(2); His6 (N); made in house; host or cells: E. coli BL21(DE3)
# Brd4(2) = molecular target: T6, Brd4(2) (Homo sapiens, UniProt O60885); assay: DSF thermal shift; assay type: binding; settings: wild type
# T6 construct: Plasmids of the eight single BET bromodomain constructs Brd2(1), Brd2(2), Brd3(1), Brd3(2), Brd4(1), Brd4(2), Brdt(1) and Brdt(2); His6 (N); made in house; host or cells: E. coli BL21(DE3)
# brd4(1)L094A = molecular target: T7, brd4(1)L094A (Homo sapiens, UniProt O60885, L94A); assay: DSF thermal shift; assay type: binding; settings: mutant
# T7 construct: Plasmids of the eight single BET bromodomain constructs Brd2(1), Brd2(2), Brd3(1), Brd3(2), Brd4(1), Brd4(2), Brdt(1) and Brdt(2); His6 (N); made in house; host or cells: E. coli BL21(DE3)
# brd4(2)L387A = molecular target: T8, brd4(2)L387A (Homo sapiens, UniProt O60885, L387A); assay: DSF thermal shift; assay type: binding; settings: mutant
# T8 construct: Plasmids of the eight single BET bromodomain constructs Brd2(1), Brd2(2), Brd3(1), Brd3(2), Brd4(1), Brd4(2), Brdt(1) and Brdt(2); His6 (N); made in house; host or cells: E. coli BL21(DE3)
# Brd2(1)*(Leu110-Ala) [3] = molecular target: T9, Brd2(1)*(Leu110-Ala) (Homo sapiens, UniProt P25440, L110A); assay: DSF thermal shift; assay type: binding; parameters: Plasmids of the eight single BET bromodomain constructs Brd2(1), Brd2(2), Brd3(1), Brd3(2); His6 (N); made in house; host or cells: E. coli BL21(DE3); settings: mutant
# Procedure: (§1) DSF assays were performed on a LightCycler®480 from Roche or a Mx3005P Real Time PCR machine from Stratagene. […] SYPRO®Orange from Invitrogen Molecular Probes® was used as a reporter dye to monitor the denaturing process of the proteins. Samples were assayed on a 96-well plate with final protein concentrations of 2 μM for the LightCycler®480 and 6 μM for Mx3005P. Compounds were added at a final concentration of 10 μM for the LightCycler®480 and 30 μM for Mx3005P, while the tetra acetylated histone peptide was added to a final concentration of 100 μM and 300 μM respectively. […] The temperature was raised with a step of 0.6° C. per minute from 37° C. to 95° C. with the LightCycler®480 collecting 39 measurements per ° C., and 1° C. per minute from 25° C. to 95° C. with Mx3005P, collecting fluorescence readings at the end of each interval. Each sample was run in triplicates.
# (§2) Collected data was analysed by IGOR Pro 6, a scientific software tool from Wave Metrics, Inc. Analysis was done following the recommendations of Niesen et al.. Fluorescence intensity was plotted as a function of temperature, generating a sigmoidal curve described by a two-state transition from folded to unfolded protein. Curves were fitted by the following sigmoidal equation: […]
# (§3) A1 and A2 are the values of minimum and maximum intensities, respectively, x0 is the inflection point and dx is the rate. Fitted curves were differentiated in IGOR Pro 6 and the maximum of the first derivative was identified using the same program. These values correspond to the inflection points of the transition curves and thus to the melting temperatures of the proteins (Tm).
# Brd2(2)*(Leu383-Ala) [4] = molecular target: T10, Brd2(2)*(Leu383-Ala) (Homo sapiens, UniProt P25440, L383A); assay: DSF thermal shift; assay type: binding; parameters: Plasmids of the eight single BET bromodomain constructs Brd2(1), Brd2(2), Brd3(1), Brd3(2); His6 (N); made in house; host or cells: E. coli BL21(DE3); settings: mutant
# Procedure: as §1, §2, §3
# Brd2(1) [5] = molecular target: T1, Brd2(1); assay: ITC reverse titration of protein into compound; assay type: binding; settings: for ΔH Brd2(1): ITC 30° C., 1% DMSO
# Procedure: (§4) ITC experiments were carried out on a ITC200 instrument from MicroCal™ Experiments were conducted at 3 different temperatures 15° C., 25° C. and 30° C., while stirring at 1000 rpm. Buffers of proteins, peptide and compounds were matched to 20 mM HEPES pH 7.5 at 25° C. and 100 mM NaCl. Frozen protein was buffer exchanged as described for the DSF experiments. Each titration comprised 1 initial injection of 0.4 μl lasting 0.8 s, followed by 19 injections of 2 μl lasting 4 s each at 2 min intervals. The initial injection was discarded during data analysis. Standard and reverse titrations were conducted depending on the binding partners.
# (§5) Reverse titrations were conducted to test the binding of the known ligands and the novel chemical probes to the wild types and the mutants. Experiments were carried out either at 25° C. or 30° C. […] In cases where the compound was solubilized in dimethyl sulfoxide, DMSO concentration was adjusted to 1% both in the syringe and in the cell.
# (§6) All the data was fitted to a single binding site model using the Microcal LLC ITC200 Origin software provided by the manufacturer to yield enthalpies of binding (ΔH) and binding constants (Kas). Further thermodynamic parameters were calculated from these values (changes in entropy ΔS, changes in free energy AG and dissociation constants (Kds)).
# Brd2(2) [6] = molecular target: T3, Brd2(2); assay: ITC reverse titration of protein into compound; assay type: binding; settings: ITC 30° C., 1% DMSO; for Kd: Kd Brd2(2)
# Procedure: as §4, §5, §6
# [7] = tested on: Brd2(1) and (2) wild type and leucine to alanine, valine and isoleucine mutants; assay: DSF thermal stabilization (FIG. 15); assay type: binding, human; settings: result in words
# Procedure: as §1, §2, §3
# Solubility observations = settings: observation in words
# Brd2(1)*(Leu110-Ala) [8] = molecular target: T9, Brd2(1)*(Leu110-Ala); assay: ITC reverse titration of protein into compound; assay type: binding; parameters: Plasmids of the eight single BET bromodomain constructs Brd2(1), Brd2(2), Brd3(1), Brd3(2), Brd4(1), Brd4(2), Brdt(1) and Brdt(2); His6 (N); made in house; host or cells: E. coli BL21(DE3); settings: for ΔH Brd2(1)* (Leu110-Ala): ITC 30° C., 1% DMSO
# Procedure: as §4, §5, §6
# Brd2(2)*(Leu383-Ala) [9] = molecular target: T10, Brd2(2)*(Leu383-Ala); assay: ITC reverse titration of protein into compound; assay type: binding; parameters: Plasmids of the eight single BET bromodomain constructs Brd2(1), Brd2(2), Brd3(1), Brd3(2), Brd4(1), Brd4(2), Brdt(1) and Brdt(2); His6 (N); made in house; host or cells: E. coli BL21(DE3); settings: ITC 30° C., 1% DMSO; for Kd: Kd Brd2(2)* (Leu383-Ala)
# Procedure: as §4, §5, §6
# [10] = tested on: WT and mutants (Leu to Ala, Leu to Val and Leu to Ile) of Brd2(2); assay: ITC of compound into protein (FIG. 16); assay type: binding, human; settings: 250 μM compound into 25 μM protein; result in words
# Procedure: To investigate the utility of the new compounds further, the inventors performed isothermal titration experiments by titrating 250 μM compound solutions (AL, ME-Am1, ET-Am1, ME-Am2, ET-Am2, 9-ME, 9-ET, 9-ME-Am1 and 9-ET-Am1) 25 μM protein solutions (WT and mutants (Leu to Ala, Leu to Val and Leu to Ile) of Brd2(2)).
# as §4, §6
# T3 sequence (P25440 344-453 limits assumed): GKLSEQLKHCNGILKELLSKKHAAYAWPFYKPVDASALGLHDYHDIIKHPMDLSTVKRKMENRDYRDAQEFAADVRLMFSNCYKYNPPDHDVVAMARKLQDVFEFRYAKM
# T1 sequence (P25440 74-180 limits assumed): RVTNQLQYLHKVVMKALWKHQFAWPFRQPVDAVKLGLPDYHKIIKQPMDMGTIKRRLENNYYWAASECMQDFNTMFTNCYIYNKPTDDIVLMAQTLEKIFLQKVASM
# T10 sequence (P25440 344-453 L383A limits assumed): as the sequence (P25440 344-453 limits assumed) above, with L40A counted along it
# T9 sequence (P25440 74-180 L110A limits assumed): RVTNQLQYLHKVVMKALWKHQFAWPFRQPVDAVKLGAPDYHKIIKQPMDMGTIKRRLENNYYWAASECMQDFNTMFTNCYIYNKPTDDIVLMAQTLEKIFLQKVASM
# T2 sequence (P25440 74-180 V103A limits assumed): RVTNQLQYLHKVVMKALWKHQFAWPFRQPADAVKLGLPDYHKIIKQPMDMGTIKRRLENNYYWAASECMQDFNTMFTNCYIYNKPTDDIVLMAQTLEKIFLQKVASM
# T4 sequence (P25440 344-453 V376A limits assumed): as the sequence (P25440 344-453 limits assumed) above, with V33A counted along it
SMILES,ΔTm Brd2(1) (Brd2(1) [1]),ΔTm Brd2(2) (Brd2(2) [2]),ΔTm Brd4(1) (Brd4(1)),ΔTm Brd4(2) (Brd4(2)),ΔTm Brd4(1)* (L094A) (brd4(1)L094A),ΔTm Brd4(2)* (L387A) (brd4(2)L387A),ΔTm Brd2(1)*(Leu110-Ala) (Brd2(1)*(Leu110-Ala) [3]),ΔTm Brd2(2)*(Leu383-Ala) (Brd2(2)*(Leu383-Ala) [4]),Kd (Brd2(1) [5]),ΔH Brd2(1) (Brd2(1) [5]),ΔH Brd2(2) (Brd2(2) [6]),Kd (Brd2(2) [6]),Thermal stabilization of Brd2 mutants versus wild types (FIG. 15) [7],Solubility (Solubility observations),Kd (Brd2(1)*(Leu110-Ala) [8]),ΔH Brd2(1)* (Leu110-Ala) (Brd2(1)*(Leu110-Ala) [8]),ΔH Brd2(2)* (Leu383-Ala) (Brd2(2)*(Leu383-Ala) [9]),Kd (Brd2(2)*(Leu383-Ala) [9]),other results
CCNC(=O)CC1N=C(c2ccc(Cl)cc2)c2cc(OC)cc(C)c2-n2c(C)nnc21 (stereo not drawn) [Compound 19],0.5 ± 0.2 K,3.8 ± 0.1 K,–,–,–,–,–,–,–,–,–,–,–,–,–,–,–,–,ΔTm Brd2(1)*(Val103-Ala) (Brd2(1)*(Val103-Ala)): 0.4 ± 0.3 K; ΔTm Brd(2)*(Val376-Ala) (Brd2(2)*(Val376Ala)): 1.3 ± 0.1 K
"CCC[C@H](C(=O)OC)[C@@H]1N=C(c2ccc(Cl)cc2)c2cc(OC)ccc2-n2c(C)nnc21 (racemic) [Compound 15, (+−)-Methyl (S)-2-((S)-6-(4-chlorophenyl)-8-methoxy-1-methyl-4H-benzo[f][1,2,4]triazolo[4,3-a][1,4]diazepin-4-yl)pentanoate]",0.1 ± 0.3 K,0.5 ± 0.2 K,0.6 ± 1.1 K,−0.5 ± 1.1 K,2.4 ± 1.3 K,1.6 ± 0.3 K,0.9 ± 0.6 K,1.4 ± 0.2 K,–,–,–,–,–,–,–,–,–,–,–
"CCC[C@@H](C(=O)OC)[C@@H]1N=C(c2ccc(Cl)cc2)c2cc(OC)ccc2-n2c(C)nnc21 (racemic) [Compound 12, (+−)-methyl (R)-2-((S)-6-(4-chlorophenyl)-8-methoxy-1-methyl-4H-benzo[f][1,2,4]triazolo[4,3-a][1,4]diazepin-4-yl)pentanoate]",1.7 ± 0.2 K,2.1 ± 0.1 K,2.9 ± 0.7 K,3.2 ± 0.7 K,6.4 ± 0.8 K,6.7 ± 0.2 K,4.0 ± 0.4 K,5.0 ± 0.1 K,5.88 ± 1.21 µM,-11.49 ± 1.048 kcal/mol,-9.52 ± 0.5449 kcal/mol,2.39 ± 1.48 µM,smaller shifts,lower than that for compounds with smaller bumps,0.4 ± 0.0824 µM,−11160 ± 241.8 cal/mol,-7.095 ± 0.1069 kcal/mol,0.265 ± 0.0539 µM,–
"COC(=O)[C@H](CC1CC1)[C@@H]1N=C(c2ccc(Cl)cc2)c2cc(OC)ccc2-n2c(C)nnc21 (racemic) [Compound 13, (+−)-methyl (R)-2-((S)-6-(4-chlorophenyl)-8-methoxy-1-methyl-4H-benzo[f][1,2,4]triazolo[4,3-a][1,4]diazepin-4-yl)-3-cyclopropylpropanoate]",0.5 ± 0.3 K,3.7 ± 0.6 K,1.2 ± 0.6 K,2.0 ± 1.0 K,5.6 ± 0.3 K,5.8 ± 0.1 K,3.7 ± 0.2 K,5.3 ± 0.3 K,4.31 ± 3.05 µM,-3.402 ± 0.4335 kcal/mol,-2.089 ± 0.211 kcal/mol,3.32 ± 1.86 µM,–,lower than that for compounds with smaller bumps,0.36 ± 0.0682 µM,−9662 ± 162.7 cal/mol,-7.868 ± 0.3365 kcal/mol,0.667 ± 0.33 µM,–
"CCNC(=O)[C@H](CC)[C@@H]1N=C(c2ccc(Cl)cc2)c2ccc(OC)cc2-n2c(C)nnc21 (racemic) [Compound 9-ET-Am1, (+−) (R)-2-((S)-6-(4-chlorophenyl)-9-methoxy-1-methyl-4H-benzo[f][1,2,4]triazolo[4,3-a][1,4]diazepin-4-yl)-N-ethylbutanamide]",–,–,–,–,–,–,–,–,–,–,–,–,smaller shifts,–,–,–,–,–,Selectivity for Brd2(2) mutants relative to wild type by ITC (FIG. 16) [10]: higher selectivity for the mutants relative to wild types
"COC(=O)[C@@H](CC1CC1)[C@@H]1N=C(c2ccc(Cl)cc2)c2cc(OC)ccc2-n2c(C)nnc21 (racemic) [Compound 16, (+−)-methyl (S)-2-((S)-6-(4-chlorophenyl)-8-methoxy-1-methyl-4H-benzo[f][1,2,4]triazolo[4,3-a][1,4]diazepin-4-yl)-3-cyclopropylpropanoate]",−0.5 ± 0.6 K,1.1 ± 0.3 K,−0.4 ± 0.5 K,0.3 ± 0.9 K,1.3 ± 0.2 K,0.1 ± 0.1 K,1.6 ± 1.0 K,2.3 ± 0.3 K,–,–,–,–,–,–,–,–,–,–,–
